Results reported in paper PMC10305181, “A VEGFB-Based Peptidomimetic Inhibits VEGFR2-Mediated PI3K/Akt/mTOR and PLCγ/ERK Signaling and Elicits Apoptotic, Antiangiogenic, and Antitumor Activities” (Pharmaceuticals, 2023).

Legend:
[1] = target: VEGFR2 extracellular domain (UniProt P35968); assay: ELISA; ELISA-based displacement assay as in ref. 51 with modifications; 20 ng VEGFR2 extracellular domain; biotinylated VEGF (btVEGF165) displaced by peptide; C-VGB3 0-316 μM, L-VGB3 up to 3 mM; triplicate
UniProt P35968, sequence (P35968 20-764): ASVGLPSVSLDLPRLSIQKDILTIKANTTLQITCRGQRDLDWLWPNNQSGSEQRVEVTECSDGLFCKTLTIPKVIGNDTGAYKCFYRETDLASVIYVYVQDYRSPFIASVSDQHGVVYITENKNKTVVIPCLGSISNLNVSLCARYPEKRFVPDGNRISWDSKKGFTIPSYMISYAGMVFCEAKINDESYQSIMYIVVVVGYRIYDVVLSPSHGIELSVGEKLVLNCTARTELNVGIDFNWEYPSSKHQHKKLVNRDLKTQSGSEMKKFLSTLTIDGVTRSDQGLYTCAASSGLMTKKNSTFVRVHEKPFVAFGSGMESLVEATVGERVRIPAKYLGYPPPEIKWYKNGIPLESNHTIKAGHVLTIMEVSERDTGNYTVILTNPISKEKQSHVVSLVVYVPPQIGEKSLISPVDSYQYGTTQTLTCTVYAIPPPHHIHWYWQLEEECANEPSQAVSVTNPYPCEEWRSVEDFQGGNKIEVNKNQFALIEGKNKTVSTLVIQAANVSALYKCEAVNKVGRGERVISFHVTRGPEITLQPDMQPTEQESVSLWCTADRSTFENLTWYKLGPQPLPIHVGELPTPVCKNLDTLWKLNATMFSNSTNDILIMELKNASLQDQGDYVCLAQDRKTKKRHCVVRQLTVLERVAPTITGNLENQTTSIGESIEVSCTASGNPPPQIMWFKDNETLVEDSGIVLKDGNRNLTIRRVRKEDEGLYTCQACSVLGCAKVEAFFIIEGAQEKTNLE

[2] = test system: HUVE and 4T1 cell lines; assay: MTT assay, HUVE and 4T1 cell lines (linear vs cyclic peptide, not separated); type: cell-based; details: cell line not specified at the place; 0–1.81 μM, 24 and 48 h
Description: The effects of C-VGB3 and L-VGB3 on the cell survival of HUVE and 4T1 cell lines were investigated using the MTT assay, as previously described, with some modifications. Cells were incubated with (0–1.81 μM) or without the peptide in the presence (20 ng·mL^−1) or in the absence of VEGF (Sigma-Aldrich, St. Louis, MO, USA). After 24 and 48 h of incubation at 37 °C, the absorbance at 570 nm was recorded using an ELISA plate reader (Space Fax 2100, Awareness, Palm City, FL, USA). The tests were repeated three times.

[3] = test system: Ki67-positive cells; assay: Ki67 immunohistochemistry of 4T1 tumors (proliferation); type: in vivo, murine; details: 0.2 mg·kg^−1 i.v.; n = 3
Description: (§1) Figure 2 Loop formation is important for the antitumor activity of VGB3. (A) To investigate the efficacy of VGB3 peptides in vivo 13 days after transplantation of a 4T1 murine MCT into female BALB/c mice (the tumor volume ~150 mm^3), the treatment groups received 0.2 mg·kg^−1 (once every 2 days, i.v.) of either the C-VGB3 or L-VGB3 and the control group received PBS for 20 days. Error bars denote ± SEM. n = 6; **** p < 0.0001, ns = not significant; two-way ANOVA. (B) Investigation of C-VGB3 and L-VGB3 effects on mice weight. […] (C,D) Immunohistochemical (IHC) analyses of CD31 and Ki67 for the C-VGB3-, L-VGB3- and PBS-treated tumors. For IHC staining, the sections of tumor tissues were incubated with the primary mouse monoclonal antibodies for CD31 (1:2000 (v/v)) and Ki67 (5 µg·mL^−1). […] Photographs were taken at 40× magnification. Error bars denote ± SEM. n = 3; * 0.02 ≤ p ≤ 0.04, ns = not significant; one-way ANOVA.
For immunohistochemistry staining, deparaffinized tumor sections were incubated overnight at 4 °C with mouse monoclonal primary anti-Ki67 (5 µg·mL^−1) or anti-CD31 (1:2000 (v/v)). The antigens were detected using 3,3-diaminobenzidine. All images were captured and analyzed with an Olympus BX51 microscope (Olympus America, New York, NY, USA).

[4] = body weight / tolerability of treated 4T1 tumor-bearing mice; type: in vivo; details: 0.2 mg·kg^−1 i.v. once every 2 days
Description: as §1
The antitumor efficacy of the peptides was investigated as described previously. Thirteen days after implanting, tumor (~150 mm^3)-bearing mice were grouped randomly into control and treated animals (6/group). From day 13 to day 33, the treatment group received cyclic or linear VGB3 (0.2 mg·kg^−1), whereas the control group received an equal volume of PBS (i.v., once every two days). The volume of tumors was calculated as 0.52 × length × width^2. In addition, changes in the weight of animals were recorded every 2 days.

[5] = test system: 4T1 murine MCT in female BALB/c mice; type: in vivo; details: 0.2 mg·kg^−1 i.v. once every 2 days, day 13 to 33; n = 6
Description: as §1
The antitumor efficacy of the peptides was investigated as described previously. Thirteen days after implanting, tumor (~150 mm^3)-bearing mice were grouped randomly into control and treated animals (6/group). […] The volume of tumors was calculated as 0.52 × length × width^2. In addition, changes in the weight of animals were recorded every 2 days.

[6] = test system: extracellular domain of VEGFR2 (KDR); assay: ELISA-based displacement (competition binding) of biotinylated VEGF from VEGFR2
Description: Figure 3 The binding affinity of C-VGB3 to VEGFR2. (A) ELISA-based displacement assay. The gradient concentrations of C-VGB3 (0, 0.316, 1, 3.16, 10, 31.6, 100, and 316 μM) were used in the assay. […] Error bars denote ± SEM. n = 3; ** p = 0.001, *** p = 0.0001, **** p < 0.0001, ns = not significant; one-way ANOVA. (B) A three-dimensional (produced by UCSF chimera software version 1.12) and a two-dimensional representation (produced by LigPlot software) of interactions in the C-VGB3/VEGFR2 complex is shown on the left and the right, respectively.
A displacement assay was conducted as reported previously with some modifications, including using 20 ng of the VEGFR2 extracellular domains (R&D Systems, Minneapolis, MN, USA). Peptide compounds were assayed three times per experiment.
Figure S6. Evaluating the binding capability of L-VGB3 to VEGFR2
(A) ELISA-based displacement assay. The gradient concentrations of L-VGB3 (3.16, 10, […]
to the extracellular domain of VEGFR2 at applied concentrations. (B) Two-dimensional representation of interactions (produced by LigPlot software) in L-VGB3/VEGFR2 […]

## C-VGB3 (cyclic VGB3) (peptide)
[1]
  percent displacement of btVEGF165 at 100 μM C-VGB3: 58%

## H-ECRPPDDGLC-OH (cysteine pairing not given here) [L-VGB3, linear structure of VGB3]
[2]
  antiproliferative property: abolished
[3]
  decrease in Ki67-positive cells, in words: ineffective
[4]; three weeks
  toxicity at this dosage (weight gain): not toxic
[4]; two-way ANOVA
  mice weight vs control groups: no significant differences
[5]
  inhibition of 4T1 MCT (tumor growth), in words: no effect
[6]; 3 mM, competition binding assay
  binding to VEGFR2 extracellular domain: no measurable binding
[6]; 3.16-3160 μM, ELISA-based displacement assay
  binding to VEGFR2 extracellular domain: no binding
